Patent publication EP0069811A1, “Branched amides of L-aspartyl-D-amino acid dipeptides and compositions thereof” (PFIZER INC., priority 1981, dated 1983)
Where a SMILES comes first, the peptide text is derived from it. [ ]: non-standard residue; d: D form. The star is where a group is joined. OiPr = CC(C)O*; NHBu = CCCCN*

test system: not given; assay: not given; details: 5% sucrose standard; Ariyoshi et al.; cited from earlier work

For `CCCOC(=O)[C@@H](CO)NC(=O)[C@@H](N)CC(=O)O` [L-aspartyl-D-serine n-propyl ester], the “times as sweet as a 5% sucrose standard” value is listed as 320 times.

same assay, conditions: prior-art values; cited from earlier work

Point of comparison: `COC(=O)C(NC(=O)[C@@H](N)CC(=O)O)C(=O)OC1CCCCC1C` (stereo partly drawn) [L-aspartylaminomalonic acid methyl 2-methylcyclohexyl diester], Sweetness potency 6600 x sucrose. Against it:
- CC1CCC1C(=O)OC[C@@H](C)NC(=O)[C@@H](N)CC(=O)O (some centres unmarked) — lower, 160 x sucrose
- C[C@H](COC(=O)C1CCC1)NC(=O)[C@@H](N)CC(=O)O — lower, 220 x sucrose
- C[C@H](COC(=O)C1CC1)NC(=O)[C@@H](N)CC(=O)O — lower, 200 x sucrose
- C[C@@H](NC(=O)[C@@H](N)CC(=O)O)C(=O)NC1CCCCC1 [cyclohexyl] — lower, 100 x sucrose
- CC(C)CNC(=O)[C@@H](C)NC(=O)[C@@H](N)CC(=O)O [isobutyl] — lower, 100 x sucrose
- CCCCNC(=O)[C@@H](C)NC(=O)[C@@H](N)CC(=O)O [n-butvlamide] (H-Asp-[dA]-NHBu) — lower, 125 x sucrose
- CCC(C)NC(=O)[C@@H](C)NC(=O)[C@@H](N)CC(=O)O (some centres unmarked) [secondary butyl] — lower, 100 x sucrose

In the case of `CC(C)OC(=O)[C@@H](C)NC(=O)[C@@H](N)CC(=O)O` [L-aspartyl-D-alanine isopropyl ester] (H-Asp-[dA]-OiPr), the Sweetness potency is listed as “up to 125 x sucrose”.

test system: expert taste panel; assay: Sweetness potency by comparison of gustatory sweetness with a sucrose standard (expert taste panel); assay type: in vivo; details: aqueous solutions compared with aqueous sucrose solutions of 7-9% by an expert taste panel
Experimental: The sweetness potency of the instant compounds was determined by comparison of their gustatory sweetnesses with sucrose. Aqueous solutions of the compound of formula (I) diluted to a suitable range of concentrations were compared with a sucrose standard by an expert taste panel. Comparisons were generally made with aqueous sucrose solutions of 7-9%, i.e., 7-9 g. per 100 ml. Higher sucrose concentrations have a distinctive mouthfeel which may influence results and lower sucrose concentration are not indicative of normal use situations. If, for example a 0.014% solution of the compound of formula (I) is judged to be equally as sweet as a 7% sucrose solution, then the sweetness potency of that compound is 7/0.014 = 500 x sucrose. All of the sweetness potency values stated herein for the compounds of the invention were determined by this method. At threshold concentrations (i.e., the lowest concentration at which sweetness is first noticed, which for sucrose is ordinarily at concentrations in the range of 2-3%), the potency of a sweetener, such as the compounds of the invention, is generally twice that observed by comparison of its gustatory sweetness with 7-9% solutions of sucrose.

Point of comparison: `CC(C)C(NC(=O)[C@@H](CO)NC(=O)[C@@H](N)CC(=O)O)C(C)C` [Example 2, L-Aspartyl-D-serine N-(2,4-dimethyl-3-pentyl)amide], Sweetness potency 180 x sucrose. Against it:
- CC1CCCC(C)C1NC(=O)[C@@H](CO)NC(=O)[C@@H](N)CC(=O)O (mixture of isomers) [Example 9, L-Aspartyl-D-serine N-(dl-cis,trans-2,6-dimethylcyclohexyl)amide] — higher, 200 x sucrose
- N[C@@H](CC(=O)O)C(=O)N[C@H](CO)C(=O)NC(C1CC1)C1CC1 [Example 1, L-Aspartyl-D-serine N-(dicyclopropylcarbinyl)amide] — higher, 700 x sucrose
- CC1(C)SC(C)(C)C1NC(=O)[C@@H](CO)NC(=O)[C@@H](N)CC(=O)O [Example 3, L-Aspartyl-D-serine N-(2,2,4,4-tetramethylthietan-3-yl)amide] — higher, 1200 x sucrose
- CC1(C)C(NC(=O)[C@@H](CO)NC(=O)[C@@H](N)CC(=O)O)C(C)(C)S1(=O)=O [Example 4, L-Aspartyl-D-serine N-(2,2,4,4-tetamethyl-1,1-dioxothietan-3-yl)amide] — higher, 850 x sucrose
- COC[C@@H](NC(=O)[C@@H](N)CC(=O)O)C(=O)NC(C1CC1)C1CC1 [Example 6, L-Aspartyl-D-O-methylserine N-(dicyclopropylcarbinyl)amide] — lower, 85 x sucrose
- COC[C@@H](NC(=O)[C@@H](N)CC(=O)O)C(=O)NC1C(C)(C)SC1(C)C [Example 7] — higher, 320 x sucrose
- COC[C@@H](NC(=O)[C@@H](N)CC(=O)O)C(=O)NC1C(C)(C)S(=O)(=O)C1(C)C [Example 8, L-Aspartyl-D-O-methylserine N-(2,2,4,4-tetramethyl-1,1-dioxothietan-3-yl)amide] — higher, 200 x sucrose

test system: taste panel; assay: Taste panel evaluation of blends with sodium saccharin for taste acceptability and sweetness intensity against aqueous sucrose standards; assay type: in vivo; details: single components
Experimental: Blends of L-aspartyl-D-serine N-(2,2,4,4-tetra- methylthietan-3-yl)amide and sodium saccharin were prepared and evaluated for taste acceptability and sweetness intensity by comparison with aqueous sucrose standards.
The % synergy was calculated according to the following formula [formula] where A is the actual sweetness determined by averaging the taste panel results and T is the theoretical sweetness determined from the composition of the mixtures by weight e.g., for the 1:4 blend the theoretical sweetness is (1/5 x 1200) + (4/5 x 300) = 480.

Point of comparison: `O=C1NS(=O)(=O)c2ccccc21.[Na]` [sodium saccharin], “Sweetness potency factors used to calculate the theoretical sweetness of the blends” value 300 x sucrose. Against it:
- CC1(C)SC(C)(C)C1NC(=O)[C@@H](CO)NC(=O)[C@@H](N)CC(=O)O [Example 3, L-Aspartyl-D-serine N-(2,2,4,4-tetramethylthietan-3-yl)amide] — higher, 1200 x sucrose
